Key:
[1] = biological target: T1, hM4 mAChR (Homo sapiens, UniProt P08173); assay: [3H]NMS inhibition radioligand binding, hM4 in CHO-K1 cell membranes
T1 construct: expressed in transfected cells; host or cells: CHO-K1 (membrane preparation)
T1 sequence (P08173 1-479): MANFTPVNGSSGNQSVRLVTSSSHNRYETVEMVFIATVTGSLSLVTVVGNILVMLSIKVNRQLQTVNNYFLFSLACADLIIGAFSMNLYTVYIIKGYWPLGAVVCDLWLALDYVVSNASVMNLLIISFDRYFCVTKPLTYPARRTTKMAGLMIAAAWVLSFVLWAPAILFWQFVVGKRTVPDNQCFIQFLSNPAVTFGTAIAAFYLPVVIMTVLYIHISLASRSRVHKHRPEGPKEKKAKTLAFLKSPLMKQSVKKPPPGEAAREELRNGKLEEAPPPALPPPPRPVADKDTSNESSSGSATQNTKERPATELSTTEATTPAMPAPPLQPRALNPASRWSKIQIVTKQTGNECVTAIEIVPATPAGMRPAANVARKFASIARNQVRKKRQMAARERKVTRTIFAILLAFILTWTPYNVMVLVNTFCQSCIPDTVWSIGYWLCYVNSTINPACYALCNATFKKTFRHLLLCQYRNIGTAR
Protocol: (§1) CHO-K1 cells stably transfected with the human muscarinic receptor subtypes (hM1–5) were grown in Dulbecco’s modified Eagle’s medium (DMEM) with nutrient mixture F12 (DMEM/F12, 50/50), containing 10% fetal bovine serum, penicillin (100 U/mL), streptomycin (100 U/mL), L-glutamine (4 mM), and geneticin (G-418, 50 μg/mL) at 37 °C in a 5% CO2 humidified incubator. […] Serum (0.7 mL) was added to inactivate the trypsin, and the cells were spun down by centrifuging at 300g for 5 min. The cells were then resuspended in ice-cold 25 mM sodium phosphate buffer containing 5 mM MgCl2, pH 7.4 (binding buffer) and homogenized using a cell disrupter (Ultra-Turrax, setting 3, 30 s). The homogenate was sedimented by centrifugation (17,000g, 15 min). The supernatant was discarded, and the resulting membrane pellets were resuspended with Ultra-Turrax in the same buffer to give a final protein concentration of 1–2 mg/mL. The protein content was determined by the method of Bradford (1976) with bovine serum albumin (Sigma) as a standard and stored at −80 °C.
(§2) Inhibition radioligand binding assays were conducted as previously described[48],[49] with 0.2 nM [^3H]NMS in binding buffer in a final volume of 250 μL. Nonspecific binding was defined in the presence of 10 μM atropine. Briefly, membrane fractions (about 25–70 μg/mL of protein) were incubated with radioligand and unlabeled test compounds for 2 h at r.t. Bound and free radioactivity were separated by filtering the assay mixture through UniFilter GF/B plates using a FilterMate Cell Harvester (PerkinElmer Life and Analytical Science). The filter bound radioactivity was counted by a TopCount NXT Microplate Scintillation Counter (PerkinElmer Life and Analytical Science). Data (cpm) were normalized to percentage-specific binding and analyzed using a four-parameter logistic equation in GraphPad Prism 5.02; IC50 values were determined, and Ki values were calculated.[59]

[2] = biological target: T2, hM5 mAChR (Homo sapiens, UniProt P08912); assay: [3H]NMS inhibition radioligand binding, hM5 in CHO-K1 cell membranes
T2 construct: expressed in transfected cells; host or cells: CHO-K1 (membrane preparation)
T2 sequence (P08912 1-532): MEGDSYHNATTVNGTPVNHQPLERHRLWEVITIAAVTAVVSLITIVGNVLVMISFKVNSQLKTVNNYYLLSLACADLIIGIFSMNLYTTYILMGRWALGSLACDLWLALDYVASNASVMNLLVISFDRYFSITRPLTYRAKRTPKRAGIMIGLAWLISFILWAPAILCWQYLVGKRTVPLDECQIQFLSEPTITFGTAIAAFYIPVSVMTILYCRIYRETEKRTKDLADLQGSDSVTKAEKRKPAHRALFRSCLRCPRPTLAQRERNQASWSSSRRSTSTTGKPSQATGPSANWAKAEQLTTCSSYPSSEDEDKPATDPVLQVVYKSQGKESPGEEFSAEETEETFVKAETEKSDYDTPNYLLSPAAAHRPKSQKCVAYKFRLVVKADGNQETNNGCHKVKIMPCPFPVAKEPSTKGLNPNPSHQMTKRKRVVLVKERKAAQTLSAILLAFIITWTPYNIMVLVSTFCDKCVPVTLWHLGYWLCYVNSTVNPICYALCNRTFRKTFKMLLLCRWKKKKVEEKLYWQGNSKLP
Protocol: as §1, §2

[3] = biological target: T3, hM1 mAChR (Homo sapiens, UniProt P11229); assay: [3H]NMS inhibition radioligand binding, hM1 in CHO-K1 cell membranes
T3 construct: expressed in transfected cells; host or cells: CHO-K1 (membrane preparation)
T3 sequence (P11229 1-460): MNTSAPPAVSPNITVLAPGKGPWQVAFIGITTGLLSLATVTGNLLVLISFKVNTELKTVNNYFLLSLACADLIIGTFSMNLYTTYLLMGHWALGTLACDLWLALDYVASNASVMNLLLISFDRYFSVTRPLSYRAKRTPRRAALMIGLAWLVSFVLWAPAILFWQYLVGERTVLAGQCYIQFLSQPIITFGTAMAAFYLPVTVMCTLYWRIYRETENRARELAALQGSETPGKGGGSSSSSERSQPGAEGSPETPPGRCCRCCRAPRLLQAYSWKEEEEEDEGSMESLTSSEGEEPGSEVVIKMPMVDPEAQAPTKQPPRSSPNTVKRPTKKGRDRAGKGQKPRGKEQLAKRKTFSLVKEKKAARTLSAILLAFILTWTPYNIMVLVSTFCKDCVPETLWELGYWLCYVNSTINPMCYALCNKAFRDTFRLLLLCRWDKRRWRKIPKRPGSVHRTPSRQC
Protocol: as §1, §2

[4] = biological target: T4, hM2 mAChR (Homo sapiens, UniProt P08172); assay: [3H]NMS inhibition radioligand binding, hM2 in CHO-K1 cell membranes
T4 construct: expressed in transfected cells; host or cells: CHO-K1 (membrane preparation)
T4 sequence (P08172 1-466): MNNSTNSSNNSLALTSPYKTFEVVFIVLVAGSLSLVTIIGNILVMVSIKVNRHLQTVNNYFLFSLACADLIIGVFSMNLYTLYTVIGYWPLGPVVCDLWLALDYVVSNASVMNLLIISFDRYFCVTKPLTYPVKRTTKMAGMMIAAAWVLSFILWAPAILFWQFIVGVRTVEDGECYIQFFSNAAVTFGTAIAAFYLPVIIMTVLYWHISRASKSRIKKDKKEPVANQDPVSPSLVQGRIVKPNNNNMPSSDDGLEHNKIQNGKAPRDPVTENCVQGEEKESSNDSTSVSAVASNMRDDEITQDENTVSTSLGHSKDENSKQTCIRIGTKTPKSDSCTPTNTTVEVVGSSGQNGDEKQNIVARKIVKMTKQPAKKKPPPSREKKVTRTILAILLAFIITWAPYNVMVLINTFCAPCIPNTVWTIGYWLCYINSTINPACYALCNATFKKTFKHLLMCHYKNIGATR
Protocol: as §1, §2

[5] = biological target: T5, hM3 mAChR (Homo sapiens, UniProt P20309); assay: [3H]NMS inhibition radioligand binding, hM3 in CHO-K1 cell membranes
T5 construct: expressed in transfected cells; host or cells: CHO-K1 (membrane preparation)
Protocol: as §1, §2

[6] = [3H]NMS, CHO-K1 cell membranes, mean ± S.E.M.

T5 sequence (P20309 whole entry): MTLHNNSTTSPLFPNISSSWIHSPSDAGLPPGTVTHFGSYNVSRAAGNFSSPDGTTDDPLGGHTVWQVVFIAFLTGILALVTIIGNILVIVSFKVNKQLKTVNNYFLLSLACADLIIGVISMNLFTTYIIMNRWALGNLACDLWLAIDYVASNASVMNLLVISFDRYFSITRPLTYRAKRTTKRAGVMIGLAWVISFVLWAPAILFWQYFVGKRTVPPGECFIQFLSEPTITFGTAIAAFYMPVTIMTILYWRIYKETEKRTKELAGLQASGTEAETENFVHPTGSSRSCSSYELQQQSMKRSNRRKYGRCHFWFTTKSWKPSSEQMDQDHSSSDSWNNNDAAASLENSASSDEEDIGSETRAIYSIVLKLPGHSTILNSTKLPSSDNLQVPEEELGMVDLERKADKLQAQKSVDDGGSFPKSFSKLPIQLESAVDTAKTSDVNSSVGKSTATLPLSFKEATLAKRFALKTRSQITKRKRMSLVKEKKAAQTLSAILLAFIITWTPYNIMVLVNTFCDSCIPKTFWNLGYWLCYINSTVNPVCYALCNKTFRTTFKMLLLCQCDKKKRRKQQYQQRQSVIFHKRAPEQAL

| Structure (SMILES) | pKi hM4 [1, 6] | pKi hM5 [2, 6] | pKi hM1 [3, 6] | pKi hM2 [4, 6] | pKi hM3 [5, 6] | Ki ([1]; [3H]NMS, CHO-K1 cell membranes, mean ± S.E.M., read-out: pKi hM4 (converted)) | Ki ([2]; [3H]NMS, CHO-K1 cell membranes, mean ± S.E.M., read-out: pKi hM5 (converted)) | Ki ([3]; [3H]NMS, CHO-K1 cell membranes, mean ± S.E.M., read-out: pKi hM1 (converted)) | Ki ([4]; [3H]NMS, CHO-K1 cell membranes, mean ± S.E.M., read-out: pKi hM2 (converted)) | Ki ([5]; [3H]NMS, CHO-K1 cell membranes, mean ± S.E.M., read-out: pKi hM3 (converted)) | ER (eudismic ratio) hM4 ([1]; eutomer vs distomer) | ER (eudismic ratio) hM5 ([2]; eutomer vs distomer) | ER (eudismic ratio) hM1 ([3]; eutomer vs distomer) | ER (eudismic ratio) hM2 ([4]; eutomer vs distomer) | ER (eudismic ratio) hM3 ([5]; eutomer vs distomer) |
| --- | --- | --- | --- | --- | --- | --- | --- | --- | --- | --- | --- | --- | --- | --- | --- |
| C[N+](C)(C)C[C@@H]1CO[C@@H](c2ccccc2)[C@@H](c2ccccc2)O1.[I-] (relative stereo) [18c, 1-((2R*,5S*,6R*)-5,6-Diphenyl-1,4-dioxan-2-yl)-N,N,N-trimethylmethanaminium Iodide] | 6.40 ± 0.06 | 6.21 ± 0.01 | 7.19 ± 0.07 | 6.62 ± 0.08 | 6.45 ± 0.01 | – | – | – | – | – | – | – | – | – | – |
| C[N+](C)(C)C[C@@H]1CO[C@H](c2ccccc2)CO1.[I-] (relative stereo) [9a, 1-((2R*,5R*)-5-Phenyl-1,4-dioxan-2-yl)-N,N,N-trimethylmethanaminium Iodide] | 5.10 ± 0.07 | <5 | 5.63 ± 0.07 | 5.06 ± 0.10 | 5.14 ± 0.10 | – | – | – | – | – | – | – | – | – | – |
| C[N+](C)(C)C[C@@H]1CO[C@@H](c2ccccc2)[C@H](c2ccccc2)O1.[I-] (relative stereo) [18a, 1-((2R*,5S*,6S*)-5,6-Diphenyl-1,4-dioxan-2-yl)-N,N,N-trimethylmethanaminium Iodide] | 5.25 ± 0.08 | 5.34 ± 0.07 | 5.85 ± 0.09 | 5.72 ± 0.09 | 5.33 ± 0.12 | – | – | – | – | – | – | – | – | – | – |
| C[N+](C)(C)C[C@@H]1CO[C@@H](c2ccccc2)CO1.[I-] (relative stereo) [9b, 1-((2R*,5S*)-5-Phenyl-1,4-dioxan-2-yl)-N,N,N-trimethylmethanaminium Iodide] | <5 | <5 | <5 | <5 | <5 | – | – | – | – | – | – | – | – | – | – |
| C[N+](C)(C)C[C@@H]1CO[C@@H](c2ccc(S(=O)(=O)c3ccccc3)cc2)CO1.[I-] (relative stereo) [17b, 1-((2R*,5S*)-5-(4-(Phenylsulfonyl)phenyl)-1,4-dioxan-2-yl)-N,N,N-trimethylmethanaminium Iodide] | <5 | <5 | <5 | <5 | <5 | – | – | – | – | – | – | – | – | – | – |
| CN(C)C[C@@H]1COC[C@](c2ccccc2)(C2CCCCC2)O1 [(2R,6R)-(+)-33b] | 7.01 ± 0.08 | 7.16 ± 0.27 | 7.68 ± 0.16 | 7.17 ± 0.11 | 6.73 ± 0.06 | – | – | – | – | – | – | – | – | – | – |
| C[N+](C)(C)CC1COC(c2ccccc2)(c2ccccc2)CO1 (centres unmarked) [compound 10, 1-(5,5-Diphenyl-1,4-dioxan-2-yl)-N,N,N-trimethylmethanaminium Iodide] | – | – | – | – | – | 0.155 µM | 0.158 µM | 0.0363 µM | 0.178 µM | 0.135 µM | – | – | – | – | – |
| CN(C)C[C@H]1COC[C@@](c2ccccc2)(C2CCCCC2)O1 [(2S,6S)-(−)-33b] | 9.09 ± 0.15 | 8.83 ± 0.10 | 9.10 ± 0.28 | 8.10 ± 0.10 | 9.02 ± 0.10 | – | – | – | – | – | 120 | 47 | 26 | 9 | 195 |

Other lines, results leading:

| pKi hM4 [1, 6] | pKi hM5 [2, 6] | pKi hM1 [3, 6] | pKi hM2 [4, 6] | pKi hM3 [5, 6] | Ki ([1]; [3H]NMS, CHO-K1 cell membranes, mean ± S.E.M., read-out: pKi hM4 (converted)) | Ki ([2]; [3H]NMS, CHO-K1 cell membranes, mean ± S.E.M., read-out: pKi hM5 (converted)) | Ki ([3]; [3H]NMS, CHO-K1 cell membranes, mean ± S.E.M., read-out: pKi hM1 (converted)) | Ki ([4]; [3H]NMS, CHO-K1 cell membranes, mean ± S.E.M., read-out: pKi hM2 (converted)) | Ki ([5]; [3H]NMS, CHO-K1 cell membranes, mean ± S.E.M., read-out: pKi hM3 (converted)) | ER (eudismic ratio) hM4 ([1]; eutomer vs distomer) | ER (eudismic ratio) hM5 ([2]; eutomer vs distomer) | ER (eudismic ratio) hM1 ([3]; eutomer vs distomer) | ER (eudismic ratio) hM2 ([4]; eutomer vs distomer) | ER (eudismic ratio) hM3 ([5]; eutomer vs distomer) | Structure (SMILES) |
| --- | --- | --- | --- | --- | --- | --- | --- | --- | --- | --- | --- | --- | --- | --- | --- |
| <5 | <5 | <5 | 5.06 ± 0.02 | <5 | – | – | – | – | – | – | – | – | – | – | C[N+](C)(C)C[C@@H]1COC[C@H](c2ccc(-c3ccccc3)cc2)O1.[I-] (relative stereo) [4a, 1-((2R*,6S*)-6-([1,1′-Biphenyl]-4-yl)-1,4-dioxan-2-yl)-N,N,N-trimethylmethanaminium Iodide] |
| 5.14 ± 0.01 | 5.40 ± 0.15 | 5.57 ± 0.07 | 5.86 ± 0.04 | 5.35 ± 0.06 | – | – | – | – | – | – | – | – | – | – | C[N+](C)(C)C[C@@H]1CO[C@@H](c2ccc(Sc3ccccc3)cc2)CO1.[I-] (relative stereo) [15b, 1-((2R*,5S*)-5-(4-(Phenylthio)phenyl)-1,4-dioxan-2-yl)-N,N,N-trimethylmethanaminium Iodide] |
| <5 | <5 | <5 | <5 | <5 | – | – | – | – | – | – | – | – | – | – | C[N+](C)(C)C[C@@H]1CO[C@H](c2ccc(-c3ccccc3)cc2)CO1.[I-] (relative stereo) [13a, 1-((2R*,5R*)-5-([1,1′-Biphenyl]-4-yl)-1,4-dioxan-2-yl)-N,N,N-trimethylmethanaminium Iodide] |
| 5.42 ± 0.02 | 5.72 ± 0.15 | 5.17 ± 0.09 | 6.38 ± 0.10 | 5.88 ± 0.14 | – | – | – | – | – | – | – | – | – | – | C[N+](C)(C)C[C@@H]1CO[C@@H](c2ccc([S+]([O-])c3ccccc3)cc2)CO1.[I-] (relative stereo) [16b, 1-((2R*,5S*)-5-(4-(Phenylsulfinyl)phenyl)-1,4-dioxan-2-yl)-N,N,N-trimethylmethanaminium Iodide] |
